Experimental data as given in US4175081A, “5-Substituted thiadiazole ureas” (priority 1977, dated 1979).

Legend:
[1] = system: Turnip (TP); experiment: Post-emergence herbicide test; format: in vivo, Brassica sp.; conditions: Brassica rapa, post-emergence, 336 h; 8 lb/acre; two weeks after treatment
In short: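 A greenhouse post-emergence herbicide test on turnip. Seeds were sown on the surface of potting soil in 3' plastic pots, lightly covered with screened soil and watered from below. Planting was timed so seedlings had 1 or 2 true leaves above the cotyledons at spraying, done in a hood with a fixed nozzle. Control or injury was scored by eye after two weeks.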

[2] = system: Johnson grass (JG); experiment: Pre-emergence herbicide test; format: in vivo, Sorgum helepense; conditions: Sorghum halepense, 336 h, 8 lb/acre, two weeks after treatment
In short: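 Pots seeded one day before spraying; compound applied pre-emergence at 8 lbs/acre (or 4 lbs/acre) in 38 gallons/acre spray volume. Sub-irrigated in greenhouse; injury/control rated visually two weeks after treatment.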

[3] = system: Yellow foxtail grass (YF); experiment: Pre-emergence herbicide test; format: in vivo, Setaria glauca; conditions: Setaria, 336 h, 8 lb/acre, two weeks after treatment
In short: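 Seeds surface-sown in potting soil one day before spraying; compounds applied pre-emergence at 8 or 4 lbs/acre in 38 gallons/acre spray. Pots held in greenhouse with sub-irrigation only. Injury or control rated visually two weeks after treatment.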

[4] = system: Crabgrass (CG); experiment: Post-emergence herbicide test; format: in vivo, Digitaria sanquinalis; conditions: Digitaria sanguinalis, post-emergence, 336 h; 8 lb/acre; two weeks after treatment
In short: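 Crabgrass (Digitaria sanquinalis) was surface seeded individually in 3' plastic pots of potting soil, covered with screened soil, and watered by sub-irrigation in greenhouse trays. Planting was staggered so seedlings reached the target stage together. Post-emergence sprays were applied in a hood with a removable belt and fixed nozzle, and control was visually rated two weeks after treatment.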

[5] = system: Crabgrass (CG); experiment: Pre-emergence herbicide test; format: in vivo, Digitaria sanquinalis; conditions: Digitaria sanguinalis, pre-emergence, 336 h; 8 lb/acre; two weeks after treatment
In short: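 Crabgrass (Digitaria sanquinalis) was surface seeded in 3' plastic pots of potting soil, covered with screened soil, and watered by sub-irrigation in greenhouse trays. Pots were seeded one day before spraying in a hood with a moving belt and fixed nozzle. Plants stayed in the greenhouse on sub-irrigation, and pre-emergence control was rated visually two weeks after treatment.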

[6] = system: Bean (BN); experiment: Pre-emergence herbicide test; format: in vivo, Phaseolus vulgaris var. Black Valentine; conditions: Phaseolus vulgaris, 336 h, 8 lb/acre, two weeks after treatment
In short: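 Black Valentine bean was seeded in potting soil one day before spraying. Compound was applied pre-emergence at 8 lbs/acre (also 4 lbs/acre) in 38 gallons per acre. Plants were sub-irrigated and injury or control was rated visually after two weeks.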

[7] = system: Corn (CN); experiment: Pre-emergence herbicide test; format: in vivo; conditions: Zea mays, 336 h, 8 lb/acre, two weeks after treatment
In short: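 Four corn seeds per pot, sown at seed-diameter depth one day before spraying, got soil surface treatment at 8 lbs/acre (4 lbs/acre formulations also prepared) in 38 gallons/acre. Pots were greenhouse-held with sub-irrigation only. Injury or control was scored visually two weeks after treatment.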

[8] = system: Cotton (CT); experiment: Pre-emergence herbicide test; format: in vivo, Gossypium hirsutum var. DPL smooth leaf; conditions: Gossypium hirsutum, 336 h, 8 lb/acre, two weeks after treatment
In short: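 Crop and weed species seeded one day before treatment, then sprayed pre-emergence at 8 lbs actual compound per acre (also 4 lbs/acre formulations) in 38 gallons per acre. Pots kept in greenhouse with sub-irrigation only; injury or control visually rated two weeks after treatment.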

[9] = system: Yellow foxtail grass (YF); experiment: Post-emergence herbicide test; format: in vivo, Setaria glauca; conditions: Setaria, 336 h, 8 lb/acre, two weeks after treatment
In short: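 Potted seedlings grown in greenhouse, planting staggered to reach the target stage together, then sprayed post-emergence at 8 lbs actual compound/acre in 38 gallons/acre (4 lbs/acre formulations also prepared). Sub-irrigated afterwards. Injury or control rated visually two weeks after treatment.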

[10] = system: Bean (BN); experiment: Post-emergence herbicide test; format: in vivo, Phaseolus vulgaris var. Black Valentine; conditions: Phaseolus vulgaris, post-emergence, 336 h; 8 lb/acre; two weeks after treatment
In short: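 Snapbean (Phaseolus vulgaris var. Black Valentine) was tested post-emergence. Four seeds were sown in 3' plastic pots of potting soil at a depth equal to the seed diameter, then sub-irrigated in greenhouse trays. Planting dates were staggered so plants were sprayed once primary leaves had expanded, with the growing point at the primary leaf nodes.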

[11] = system: Corn (CN); experiment: Post-emergence herbicide test; format: in vivo; conditions: Zea mays, 336 h, 8 lb/acre, two weeks after treatment
In short: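 Greenhouse seedlings grown in potting soil and sprayed post-emergence at 8 lbs compound/acre (formulations also made for 4 lbs/acre) in 38 gallons/acre spray volume. Watering by sub-irrigation only. Injury or control rated visually two weeks after treatment.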

[12] = system: Barnyard grass (BG); experiment: Pre-emergence herbicide test; format: in vivo; conditions: Echinochloa crus-galli, 336 h, 8 lb/acre, two weeks after treatment
In short: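 Barnyard grass surface-seeded in potting soil and sprayed pre-emergence one day after seeding, at 8 or 4 lb compound/acre in 38 gal/acre spray volume. Pots kept in greenhouse with sub-irrigation only; injury or control rated visually two weeks after treatment.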

[13] = system: Turnip (TP); experiment: Pre-emergence herbicide test; format: in vivo, Brassica sp.; conditions: Brassica rapa, pre-emergence, 336 h; 8 lb/acre; two weeks after treatment
In short: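 Turnip (Brassica sp.) seeds were surface sown in 3' plastic pots of potting soil, covered with a thin layer of screened soil, and sub-irrigated in greenhouse trays. Pots were seeded one day ahead of treatment, sprayed pre-emergence under a hood with a fixed nozzle and moving belt, then kept in the greenhouse.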

[14] = system: variety of crops and weed species; experiment: Pre- and post-emergence herbicide tests, overall assessment of Tables III-VI; format: in vivo; conditions: data of Tables III-VI
Description: All crop and weed species were planted individually in 3' plastic pots containing potting soil. Four seeds each of corn, cotton, and snapbeans were seeded to a depth equal to the diameter of the seed. All other species were surface seeded and sprinkled with screened soil in an amount sufficient to cover the seed. Immediately after planting, all pots were watered by sub-irrigation in greenhouse trays. Pots for the pre-emergence phase were seeded one day before treatment.
Compounds were tested at rates of application equivalent to 8 lbs. of actual compound per acre in a spray volume of 38 gallons per acre. Spray hood constants required to deliver the above volume are as follows:
Two weeks after treatment, pre- and post-emergence injury or control was visually rated, and the results were as shown in the following tables. Pre-emergence data are provided in TABLE III and post-emergence data are provided in TABLE IV, for compounds having the formula illustrated in TABLE I. Correspondingly, pre-emergence and post-emergence data, respectively, are set forth in TABLES V AND VI, for compounds having the formula illustrated in TABLE II.

[15] = system: Barnyard grass (BG); experiment: Post-emergence herbicide test; format: in vivo; conditions: Echinochloa crus-galli, 336 h, 8 lb/acre, two weeks after treatment
In short: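 Greenhouse pot-grown barnyard grass seedlings sprayed post-emergence at 8 lbs active compound per acre (some at 4 lbs/acre) in 38 gallons per acre, then sub-irrigated. Injury or control rated visually two weeks after treatment.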

[16] = system: Johnson grass (JG); experiment: Post-emergence herbicide test; format: in vivo, Sorgum helepense; conditions: Sorghum halepense, 336 h, 8 lb/acre, two weeks after treatment
In short: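 Greenhouse pot-grown seedlings sprayed post-emergence at 8 lbs compound per acre (some at 4 lbs/acre) in 38 gallons per acre spray volume. Sub-irrigated thereafter. Injury/control rated visually two weeks after treatment.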

[17] = system: Cotton (CT); experiment: Post-emergence herbicide test; format: in vivo, Gossypium hirsutum var. DPL smooth leaf; conditions: Gossypium hirsutum, post-emergence, 336 h; 8 lb/acre; two weeks after treatment
In short: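 Cotton (Gossypium hirsutum var. DPL smooth leaf) was grown in 3' plastic pots of potting soil, four seeds per pot, planted at a depth equal to the seed diameter and watered by sub-irrigation. At the stage of expanded cotyledons with the first true leaf 1' long, plants were sprayed post-emergence in a hood with a fixed nozzle over a moving belt. Percent control was rated visually two weeks later.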

[18] = system: Amaranth pigweed (PW); experiment: Post-emergence herbicide test; format: in vivo, Amaranthus retroflexus; conditions: 336 h, 8 lb/acre, two weeks after treatment
In short: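 Pot-grown pigweed was sprayed post-emergence at the 1–2 true-leaf stage with compound at rates equivalent to 8 lbs per acre (formulations also prepared for 4 lbs/acre) in 38 gallons per acre, using a hood with fixed nozzle. Plants were sub-irrigated in the greenhouse, and injury or control was rated visually two weeks after treatment.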

| SMILES | pest or weed control at 8966.8 g/ha [1] | pest or weed control at 8966.8 g/ha [2] | pest or weed control at 8966.8 g/ha [3] | pest or weed control at 8966.8 g/ha [4] | pest or weed control at 8966.8 g/ha [5] | pest or weed control at 8966.8 g/ha [6] | pest or weed control at 8966.8 g/ha [7] | pest or weed control at 8966.8 g/ha [8] | pest or weed control at 8966.8 g/ha [9] | pest or weed control at 8966.8 g/ha [10] | pest or weed control at 8966.8 g/ha [11] | pest or weed control at 8966.8 g/ha [12] | pest or weed control at 8966.8 g/ha [13] | herbicidal effectiveness / selectivity, in words [14] | pest or weed control at 8966.8 g/ha [15] | pest or weed control at 8966.8 g/ha [16] | pest or weed control at 8966.8 g/ha [17] | pest or weed control at 8966.8 g/ha [18] |
| --- | --- | --- | --- | --- | --- | --- | --- | --- | --- | --- | --- | --- | --- | --- | --- | --- | --- | --- |
| CCNC(=O)Nc1nnc(C(F)(F)F)s1 [Example 9] | 60% | 10% | 20% | 60% | 10% | 100% | 50% | 30% | 30% | 70% | 30% | 20% | 10% | more selective when applied to a certain crop or weed species | 40% | 80% | 50% | 100% |
| O=C(Nc1ccc(Cl)cc1)Nc1nnc(C(F)(F)F)s1 [Example 15] | 50% | 10% | 10% | 30% | 10% | 30% | 10% | 80% | 20% | 40% | 20% | 10% | 10% | more selective when applied to a certain crop or weed species | 20% | 20% | 60% | 100% |
